Test results reported in patent US6740305B1, “Assessment of gastric emptying disorders” (Xanthus Life Scienes, Inc., priority 1999, dated 2004).

Assays:
[1] = design: species or system human; conditions: in vivo, 1.5 mg/kg
From the text: In accordance with the present invention, the solid food to be checked and swallowed as the meal for a gastric emptying test is in the form of an edible, egg fortified muffin from a microwaveable recipe, freshly prepared prior to use. The base formulation consists of a bulk mix containing 92 grams of powdered, defatted milk; 320 grams of apple flavored instant muffin mix, 80 grams of finely grated Parmesan cheese and 0.6 gram of pulverized L-2-oxo[^13C]thiazolidine-4-carboxylic acid (OTZ) tracer probe. The mixture is homogenized in a food mill and stored in individual portions of 61.625 grams. Prior to cooking, the individual muffin mix is reconstituted in a microwaveable plastic dish with 110 ml of water and 61 grams of defatted egg substitute and then thoroughly blended and allowed to stand covered for 0.5 hour at room temperature. After shaking well, the mixture is uncovered and microwaved in a 500 watt oven for 4 minutes at medium power, rotated 120 degrees, and again microwaved for 4 minutes. The muffin is loosened around the edges, allowed to cool, and removed from the cooking container. […]
The samples are analyzed for isotopic content and corrected for interindividual differences in endogenous CO2 production rate in order to obtain the appropriate data points. […]

gastric emptying = experiment: Breath test with liquid test meal given with drugs known to accelerate or delay gastric emptying (FIG. 6); assay type: in vivo, human; conditions: [acyl]^13C-leucine as emptying probe
From the text: In FIG. 6 summarizing this experiment, metoclopramide is shown as a prokinetic agent. Similarly, loperamide is shown to delay emptying.

| Compound | Absorption kinetics from appearance pattern of ^13CO2 in breath [1] | T1/2 (half-emptying time) [1] | Effect on gastric emptying (gastric emptying) |
| --- | --- | --- | --- |
| O=C(O)[C@@H]1CS[13C](=O)N1 [2-[^13C -OTZ, L-2-oxo[^13C]thiazolidine-4-carboxylic acid] | zero-order absorption kinetics | 19 +/− 4 | – |
| CCN(CC)CCNC(=O)c1cc(Cl)c(N)cc1OC [Metoclopramide, metoclopramide] | – | – | accelarated the gastric emptying profile in a statistically significant manner |
| CN(C)C(=O)C(CCN1CCC(O)(c2ccc(Cl)cc2)CC1)(c1ccccc1)c1ccccc1 [loperamide] | – | – | emptying times trending toward greater than normal half-emptying values |
